{"source": "patent US20080020413A1", "about": "“CRYSTALLINE VISFATIN AND METHODS THEREFOR” (Columbia University, priority 2006, published 2008)", "key": {"[1]": {"molecular_target": "T1, NMPRTase (Homo sapiens, UniProt P43490)", "T1 construct": "Full-length human and murine NMPRTase (residues 1-491) was sub-cloned into the pET26b vector; made in house; host or cells: E. coli (pET26b vector)", "T1 sequence (P43490 whole entry, the tested form may be a part)": "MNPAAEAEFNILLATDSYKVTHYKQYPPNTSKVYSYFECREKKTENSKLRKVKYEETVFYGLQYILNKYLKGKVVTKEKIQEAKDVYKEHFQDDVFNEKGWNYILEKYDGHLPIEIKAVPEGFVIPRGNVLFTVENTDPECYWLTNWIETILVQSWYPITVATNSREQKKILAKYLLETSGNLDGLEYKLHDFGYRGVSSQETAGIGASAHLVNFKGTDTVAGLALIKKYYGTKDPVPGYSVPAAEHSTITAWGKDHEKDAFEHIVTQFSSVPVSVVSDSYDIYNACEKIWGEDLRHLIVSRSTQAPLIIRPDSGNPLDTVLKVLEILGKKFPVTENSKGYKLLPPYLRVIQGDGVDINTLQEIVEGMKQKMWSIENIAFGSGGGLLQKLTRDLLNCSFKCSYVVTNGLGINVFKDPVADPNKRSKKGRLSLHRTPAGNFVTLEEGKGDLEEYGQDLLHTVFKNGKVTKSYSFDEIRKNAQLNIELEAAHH", "test": "NMPRTase coupled-enzyme spectrometric assay", "assay_type": "biochemical", "details": "FIG. 5; Vmax=kcat([E]-[I])", "description": "The catalytic activity of NMPRTase was determined using a coupled-enzyme spectrometric assay, following a published protocol (Revollo et al., 2004). Briefly, the NMN product of NMPRTase is converted to NAD^+ with the enzyme NMN/NAMN adenylyltransferase (NMNAT), and NAD^+ is then reduced to NADH by alcohol dehydrogenase (Sigma) using ethanol as the substrate. By monitoring the appearance of NADH at 340 nm, the activity of NMPRTase can be determined. […] The reaction buffer contains 50 mM Tris (pH 7.5), 0.4 mM PRPP, various concentrations of NM (or NA), 2.5 mM ATP, 12 mM MgCl2, 1.5% ethanol, 10 mM semicarbazide (to remove the acetaldehyde product of ethanol oxidation), 0.02% BSA, 10 mg/ml NMNAT, 30 mg/ml ADH, and 0.5 mM NMPRTase. The reactions are carried out at room temperature."}, "[2]": {"system": "NAPRTases", "details": "cited from earlier work"}, "[3]": {"system": "tumor cells", "details": "cited from earlier work"}, "[4]": {"system": "normal cells", "details": "cited from earlier work"}, "[5]": {"system": "renal cell carcinoma", "details": "mouse renal cell carcinoma model; cited from earlier work"}}}
{"molecule": "O=C(/C=C/c1cccnc1)NCCCCC1CCN(C(=O)c2ccccc2)CC1", "note": "[FK866, (E)-N-[4-(1-benzoylpiperidin-4-yl)butyl]-3-(pyridin-3-yl)acrylamide]", "values": [{"measurement": "relationship between FK866 concentration and Vmax", "setting": "[1]", "result": "linear relationship"}, {"measurement": "inhibition of NAPRTases", "setting": "[2]", "result": "does not inhibit"}, {"measurement": "apoptosis", "setting": "[3]", "result": "induces apoptosis"}, {"measurement": "intracellular NAD+ levels", "setting": "[3]", "result": "depletion of intracellular NAD^+ levels"}, {"measurement": "toxicity to normal cells", "setting": "[4]", "result": "little toxicity"}, {"measurement": "anti-angiogenic effects", "setting": "[5]", "result": "potent anti-angiogenic effects"}]}
